Values of other authors, collected in patent publication US7713550B2, “Controlled release sodium valproate formulation” (Andrx Corporation, priority 2004, dated 2010).

Settings: for valproic acid

solubility: 1270 µg/mL
Compound: CCCC(CCC)C(=O)O [divalproex sodium]
